{"source": "patent US5023256A", "about": "“Pharmacologically active aminoimidazopyridines” (Dompe Farmaceutici S.p.A., priority 1989, dated 1991)", "key": {"[1]": {"assay": "Evaluation of the Lethal Dose50 (LD50), acute toxicity", "details": "in vivo, ip; mouse, 14 days observation, probit method", "description": "Evaluation of the Lethal Dose50 (LD50)\nThe tests were carried out on Swiss Nos (Nossan; Correzzana, Milano) mice weighing 18-20 g each. The animals, divided into groups of 10 animals each (5M+5F), were on an empty stomach for 18 hrs, with water ad libitum, and kept in cages with a grid floor. The compounds (I) were dissolved in water or suspended in 0.5% carboxymethylcellulose and intraperitoneally administered to the animals (10 ml/kg). The number of mice which died within the following 6 hours was recorded. Upon the expiry of the sixth hour, the animals were allowed to eat up to the end of the experimentation which lasted 14 days. During this period all the toxic symptoms and the mortality occurring were noted.\nThe animals which died during the test period and those which were sacrificed at the end of the same, underwent autopsy for a macroscopic examination of their main organs. The experimental data were statistically compared with the X^2 method and LD50 was extrapolated by the `probit` method."}, "[2]": {"test_system": "histamine-induced mortality", "assay": "Effect on the Mortality Induced by Histamine", "assay_type": "in vivo, male albino guinea pigs (Dunkin-Hartley)", "details": "Cavia porcellus, po; guinea pig, p.o. 60 minutes before 1,25 mg/kg i.v. histamine dihydrochloride; amount inhibiting 50% of mortality", "description": "Effect on the Mortality Induced by Histamine\nThe method described by Romer D. et al. (Med. Welt, 17, 791, 1966) was followed and the tests were carried out on male albino guinea pigs (Dunkin-Hartley), weighing 350-450 g, which were kept in cages with a grid floor, on an empty stomach for 24 hrs with water ad libitum.\nThe compounds under examination were dissolved in 0.5% carboxy methylcellulose and orally administered to the animals 60 minutes before that the same animals were intravenously treated with 1,25 mg/kg of histamine dihydrochloride dissolved in saline solution. In the control animals, treated with carboxymethyl cellulose, the histamine dihydrochloride solution, intravenously administered, induced a 100% mortality.\nIt was evaluated ED50 which corresponds to the amount of the compound able to inhibit 50% of the mortality induced by histamine: the estimation of ED50 was carried out applying the `probit` method (Finney D. J., Statistical methods in biological assay, pg 512, 1957)."}, "[3]": {"test_system": "sleeping time induced by pentobarbital", "assay": "Effect on the Sleeping Time Induced by Pentobarbital", "assay_type": "in vivo, male mice Swiss-Nos", "details": "mouse, 25 mg/kg i.p. 30 minutes before 40 mg/kg i.p. sodium pentobarbital; increase vs control group", "description": "Effect on the Sleeping Time Induced by Pentobarbital The tests were carried out on male mice Swiss-Nos (Nossan, Correzzana, Milano) weighing 20-24 g, on an empty stomach for 18 hrs, according to the method described by R. Turner (Screening Methods in Pharmacology, Acad. Press, pg 70, 1965). […] The narcosis start was considered from the moment when the animal, lying on its back, lost its straightening reflex. The narcosis end was considered from the moment when the animal recovered such reflex. The carrier or the compounds under examination were administered by intraperitoneal route at the dose 25 mg/kg, 30 minutes before the pentobarbital administration. The resulting data are expressed as sleeping time increase percent in the treated animal group in comparison to the control animal group."}}, "data": [{"smiles": "CN1CCN(c2nc3cccnc3n2Cc2ccccc2)CC1.O=C(O)/C=C/C(=O)O", "note": "[Example 1, 3-Benzyl-2-(4-methylpiperazin-1-yl)-3H-imidazo[4,5-b]pyridine fumarate]", "values": [{"measurement": "LD50 at 336 h", "setting": "[1]", "result": "> 100", "unit": "mg/kg"}, {"measurement": "ED50", "setting": "[2]", "result": 0.033, "unit": "mg/kg"}, {"measurement": "Increase of sleeping time induced by pentobarbital", "setting": "[3]", "result": 183, "unit": "%"}]}, {"smiles": "CN(C)CCNc1nc2cccnc2n1Cc1ccccc1.Cl.Cl", "note": "[Example 2, 3-Benzyl-2-(2-dimethylaminoethylamino)-3H-imidazo[4,5-b]pyridine dihydrochloride]", "values": [{"measurement": "LD50 at 336 h", "setting": "[1]", "result": "> 100", "unit": "mg/kg"}, {"measurement": "Increase of sleeping time induced by pentobarbital", "setting": "[3]", "result": 76, "unit": "%"}]}, {"smiles": "CC(C)(C)c1ccc(C(O)CCCN2CCC(C(O)(c3ccccc3)c3ccccc3)CC2)cc1", "note": "(stereo not drawn) [Terfenadine, reference compound]", "values": [{"measurement": "Increase of sleeping time induced by pentobarbital", "setting": "[3]", "result": 44, "unit": "%"}]}]}
